The target of series [1] is SRC2-LD, FTDR-stapled, FITC-labelled. The series is described as follows: fluorescence polarisation; saturation fluorescence anisotropy; ERα-LBD serially diluted to 0.4-7500 nM with 17β-estradiol at four equivalents to ERα; FITC-peptide 50 nM; 10 mM Hepes pH 7.4, 50 mM EDTA, 150 mM NaCl, 0.005% Tween-20; 96-well plates.
In series [2] the target is SRC2-LL, FTDR-stapled, FITC-labelled. The series is described as above.
Series [3] can be described thus: Circular dichroism, percent α helicity. Type of series: physicochemical. The settings on record: CD, 222 nm MRE, 50 μM peptide, room temperature. From the text:
CD spectra were obtained using a J-815 CD spectrometer (Jasco) using the wavelength range of 190 to 260 nm. Spectra were collected in a 10 mm quartz cuvette and each spectrum represents the accumulation of three solvent-blank subtracted runs. Data were collected using the following system parameters: bandwidth of 1.00 nm, digital integration time of 2 s, pitch of 1.0 nm, and a scan speed of 50 nm/min. Data underwent minimal adaptive smoothing, and all the related spectra were taken at room temperature under inert nitrogen flow. Peptides were solubilized to 50 μM in either Milli-Q water, 45 mM sodium phosphate buffer (pH 7.4), 30 mM SDS (pH 7.4), or 50% (v/v) TFE. Percentage of α helicity was calculated based on the ellipticity value at 222 nm as done previously ([25], [63]), following the equation α helicity (%)=([ϴ]obs222-[ϴ]0)/([ϴ]max222-[ϴ]0) where [ϴ]max222 = (−44,000 + 250T) (1-x/n), [ϴ]0 = […], T = 20 °C, x = 3, n = number of residues ([25], [63]).
For orientation: CD spectra are sensitive to the conformation of chiral molecules.

In another series the test system is MCF-7 ER + cells. Kind of series: Soft agar colony formation assay (anchorage independent growth). The series is classed as cell-based. The settings on record: MCF-7, E2 1 nM, peptide 20 μM, 14 to 18 days. Here is the method:
Figure 6 Soft agar colony formation assay. (A) soft agar average colony size and (B) average colony formation in MCF-7 ER + cells assessed in the presence of vehicle (EtOH), E2 (1 nM), and the indicated peptide treatments (WT, LL, or LD) at 20 μM. Graphed data represent the mean ± SD (n = 6). An ordinary one-way ANOVA was used to assess statistical significance where ‘∗’ indicates p < 0.05, ‘∗∗’ indicates p < 0.01, ‘∗∗∗’ indicates p < 0.001. ER, estrogen receptor.
Cells were seeded (1.5 × 10^4 cells/well) in 1X sterile low melt agarose (Life Technologies) containing 5% dextran-coated charcoal and the appropriate treatment. Soft agar assays were allowed to proceed for 14 to 18 days at 37 °C. Afterward, cell colonies were stained with 0.005% crystal violet in PBS. Colony number and colony size were analyzed with ImageJ (Wayne Rasband, National Institutes of Health, http://rsbweb.nih.gov/ij/). Data are presented as the average ± SD of six independent measurements.

The text below walks through data of paper PMC11667158, “Flexible fluorine-thiol displacement stapled peptides with enhanced membrane penetration for the estrogen receptor/coactivator interaction” (The Journal of Biological Chemistry, 2024).

On to “estrogen receptor α ligand-binding domain (domain or fragment)”, for which the values for the fold increase in Kd against SRC2-RCM in series [1] and in series [2] were 1.2 fold and 1.5 fold, respectively.
As to HKILHRLLQDS [SRC2-WT], the “α-helicity (%)” value is reported as 57.9% in series [3] (30 mM SDS micellar solution, pH 7.4); 17% in series [3] (45 mM sodium phosphate buffer, pH 7.4); 84% in series [3] (50% (v/v) TFE in water, pH 7.4); 12.8% in series [3] (Water). Further, the “downregulation of colony size compared to the vehicle” value in the series on MCF-7 ER + cells is recorded as 19%. For the same substance, the average colony size in the series on MCF-7 ER + cells (n = 6) is 10,193 μm^2.
